# In US20040009899A1, “Treating dominant disorders” (priority 2002, published 2004):
# Columns and labels:
# human HD transgene = test: Western immunoblot of human HD transgene (htt) expression in PNA-treated R6/1 mice; type: in vivo, mouse
# Procedure: Cannulation and microsurgery—method 1: B6CBA, R6/1, and R6/2 mice were obtained from The Jackson Laboratory (Bar Harbor, Me.). Mice were anesthetized via intraperitoneal (i.p.) injection with 100 mg/kg of a ketamine/xylazine solution containing 8 mg/mL ketamine and 1 mg/mL xylazine in 0.9% saline. Once anesthetized, each mouse was cannulated. Each anesthetized mouse was placed in a Stoelting Stereotaxic Frame with a mouse adapter (Stoelting Instruments, Wood Dale, Ill.). An incision was made using a scalpel, and the skin and tissue were pulled back with swabs to reveal the skull. The cannulation site was positioned for optimum access to the ventricle, at coordinates AP −0.2 mm, Horiz −1 mm from bregma. A cannula entry port and two bone screw ports were opened in the skull using a Dremel Flex Shaft Drill (Stoelting Instruments) with a 2.1 mm burr for the guide cannula port and a 0.7 mm burr for the bone screws (Fine Science Tools, Foster City, Calif.). Two 4.0 mm long bone screws (0.85 diameter) were placed far enough into the bone screw ports to fasten securely. After placing the bone screws, a cannula system (Plastics One, Roanoke, Va.) including a guide cannula (C315Gs-5/Spc), a dummy cannula (C313Dcs-5Spc), an injection cannula (C3151S-5.2/Spc), and a connector assembly (C313C) was placed in the guide cannula port. The guide cannula was positioned 1.5 mm into the brain using a stereotaxic needle and was secured to the bone screws and incision with dental cement. Once the dental cement hardened, the stereotaxic needle was removed and both the injection cannula and dummy cannula were placed within the guide cannula and secured to the connector assembly. Proper cannula placement was confirmed in several mice by injecting bromophenol blue dye into the ventricular space and noting that only the ventricle was stained. […]
# Following the treatment period, mice were anesthetized with ether and sacrificed by cervical dislocation. […] Following centrifugation, the supernatants were removed and protein concentrations were quantified by Bradford assays using a BSA standard. […]
# R6/2 mice = test: Bar test to assess motor skill; type: in vivo, mouse; conditions: compared to untreated or saline treated R6/2 mice
# Source text: Bar test to assess motor skill: Each mouse was held by its tail and allowed to grasp a bar (0.25 cm in diameter, 60 cm long) suspended 30 cm above a padded bench. After the mouse had firmly grasped the bar, the test was begun by releasing its tail. The mouse was allowed two minutes to “escape” by climbing along the bar to one of the bar supports. The mouse was given both performance and time ratings. Performance ratings were based on the following scale: 0, unable to hold bar; 1, holds bar, unable to bring hind limbs to bar; 2, holds bar, draws hind limbs to bar (i.e., 3 paws firmly on bar); 3, holds bar, moves along bar (i.e., moves at least 2 inches in a coordinated manner along bar); 4, escapes (i.e., mouse touches a bar support with one paw). Time ratings were based on the following scale: 0, unable to hold bar (0-3 seconds); 1, holds bar for 4-30 seconds; 2, holds bar for 31-60 seconds; 3, holds bar for 61-90 seconds; 4, holds bar for 91-120 seconds. If the mouse had not reached one of the bar supports by the end of the two minute test period it was removed from the bar. […]
# At 9 weeks of age, the mice in each group received saline (group 1) or HDs at 2.0 mg/kg, 5.0 mg/kg, or 20.0 mg/kg (groups 2, 3, and 4, respectively) by i.p. injection every 48 hours. […] Weight stability, clasping behavior, motility, and motor skill were assessed weekly during the treatment period. […]
substance,measurement,setting,value
"HDs: sense PNA oligomer, 14 residues, 5′-GGACTGCCGTGCCG-3′ (SEQ ID NO:3), specific for the expanded human HD allele (all peptide nucleic acid (PNA))","effectiveness at inhibiting transgene expression relative to random, scrambled PNA",human HD transgene; 25 μg into the ventricle every other day for 4 or 6 days,significantly more effective
same,effect on expression of the human transgene in the liver,"human HD transgene; liver, direct injection into the brain, 4 or 6 days",little effect
same,inhibition of human HD transgene expression,"human HD transgene; striatum, 1 μL of 25 μg/μL into the ventricle every other day for 4 or 6 days, compared to untreated R6/1 controls",dramatic inhibition
same,motor skill (bar test),R6/2 mice; 5.0 mg/kg i.p. every 48 hours,increased motor skill
same,motor skill (bar test),R6/2 mice; 20.0 mg/kg i.p. every 48 hours,increased motor skill
